Assay results from article PMC10488149 (International Journal of Molecular Sciences, 2023).

Assays:
[1] = target: T1, α1-acid glycoprotein (AGP) (Homo sapiens, UniProt P02763); assay: Fluorescence titration
Excerpt: Fluorescence spectra were collected using an emission detector module of the ChirascanPlus spectropolarimeter (APL), fixing the PMU of the detector at 600 mV. For every measurement, a 1 cm quartz cell, which is suitable for CD and fluorescence, was used. Experimental details: 1 cm cell pathlength, 500–310 nm emission scan, λexc 305 nm, and 5 nm excitation bandwidth.

[2] = target: T1, α1-acid glycoprotein (AGP); assay: in vitro; conditions: isolated α1-acid glycoprotein (AGP) in solution
Experimental: SRCD single-spectra and UV denaturation experiments were recorded on the module B unit at B23 (Diamond Light Source, Didcot, UK) using a 6-cell sample turret. The following are the experimental parameters for UV denaturation: 30 scans, 260–180 nm range, 0.5 mm slit, 1 s integration time, 1 nm increment. The thermal denaturation experiments were performed with an Applied Photophysics (APL) ChirascanPlus spectropolarimeter. […] The baseline of water or buffer was subtracted from the CD spectra of proteins with or without ligands. Far-UV (180–250 nm) denaturation SRCD measurements were collected in 0.02 cm rotating cells with a 70 μL volume. Thermal denaturations were recorded with both B23 beamline and ChirascanPlus (APL, Leatherhead, UK). For CD titration, the protocol used was to measure the CD spectrum of each protein–ligand mixture at various ligand molar ratios by adding a small aliquot of ligand (few microliters of an appropriate concentration of ligand stock solution) to the protein in the cuvette cell. […] The same method was used for the titration via fluorescence spectroscopy.
The CD spectra were processed using CD Apps [27] and OriginPro. […] The evaluated parameters of melting temperature (Tm) were reported in °C and half-live (t1/2) for photo degradation in s (y = A1exp (−x/t1) + y0, t1/2 = t1log2). […]

[3] = target: T1, α1-acid glycoprotein (AGP); assay type: binding
Experimental: (§1) The Hill fitting was performed with OriginLab.
(§2) The evaluation of molar enthalpies (ΔHm) and entropies (ΔSm) at the melting temperature for the melting process was calculated assuming a two-state native-to-unfolded model. The molar ratios at different temperatures were determined using the linear extrapolations of plateau at T >> Tm and T << Tm for the Boltzmann fitting curves, assuming that only denatured protein was present at T >> Tm and only native at T << Tm. The reversibility was assumed to be around Tm ± 5 °C, and the relative molar ratios for native and denatured species was used to determine the equilibrium constants and the associated Gibbs free energy (ΔGm, from ΔGm = −RT·lnK). Following the given relationship, ΔGm was supposed to be ~0 at the Tm (K^(Tm) ~ 1). ΔHm and ΔSm were calculated at Tm by interpolating with a linear model the ±5 °C region of the ΔGm vs. T curve around Tm, assuming the intercept corresponding to ΔHm, previous correction from °C to Kelvin, and the slope to −ΔSm, assuming a y = a − bx model, where ΔGm^(Tm) = ΔHm^(Tm) − TmΔSm^(Tm) at ΔGm^(Tm) = 0.
(§3) For the thermal denaturations, Boltzmann fitting with the equation y = y0 + A * (frac/(1 + exp ((x − x01)/k1)) + (1 − frac)/(1 + exp((x − x02)/k2))) was used. The SRCD spectra as a function of temperature were recorded with B23 module B with synchrotron operation at 300 or 350 mA, using rotating cell for thermal denaturation with 0.02 cm cell pathlength, 0.5 mm slit, 1 sec integration time, and 1 nm increment in the 260–180 nm spectral region.

[4] = target: T2, human serum albumin (HSA) (Homo sapiens, UniProt P02768); assay: Thermal denaturation followed by CD at 191 nm; assay type: binding; conditions: HSA with ligand
T2 construct: purchased Sigma A3782
Experimental: as §1, §2, §3

T1 sequence (P02763 19-201): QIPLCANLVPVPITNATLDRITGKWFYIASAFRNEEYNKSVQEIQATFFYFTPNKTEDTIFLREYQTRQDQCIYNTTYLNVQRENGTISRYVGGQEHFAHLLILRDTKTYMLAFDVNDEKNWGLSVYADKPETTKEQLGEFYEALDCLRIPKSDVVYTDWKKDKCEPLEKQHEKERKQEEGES
T2 sequence (P02768 25-609): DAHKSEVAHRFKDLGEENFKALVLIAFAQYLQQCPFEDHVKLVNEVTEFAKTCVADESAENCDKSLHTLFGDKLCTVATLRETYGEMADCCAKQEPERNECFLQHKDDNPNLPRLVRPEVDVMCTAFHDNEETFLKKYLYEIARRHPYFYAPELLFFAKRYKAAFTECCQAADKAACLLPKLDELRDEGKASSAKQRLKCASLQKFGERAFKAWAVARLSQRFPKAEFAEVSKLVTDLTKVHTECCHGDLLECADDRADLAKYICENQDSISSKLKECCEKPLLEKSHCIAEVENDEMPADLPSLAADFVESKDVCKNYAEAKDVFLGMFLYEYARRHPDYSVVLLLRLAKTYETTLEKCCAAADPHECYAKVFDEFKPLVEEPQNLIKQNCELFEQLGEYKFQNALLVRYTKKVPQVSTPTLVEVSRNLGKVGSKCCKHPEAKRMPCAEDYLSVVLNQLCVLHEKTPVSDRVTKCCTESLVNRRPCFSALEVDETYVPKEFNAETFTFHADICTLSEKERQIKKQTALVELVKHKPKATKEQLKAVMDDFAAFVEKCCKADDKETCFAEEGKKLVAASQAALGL

Compound	Kd [1]	Kd [2]	Tm (°C) [B] [3]	ΔHm, Tm ([3]; AGP with ligand, linear fitting around Tm, AGP alone 127.8)	ΔSm, Tm ([3]; AGP with ligand, linear fitting around Tm, AGP alone 392.1)	Tm (°C) [A] ([4]; Boltzmann fitting of experimental data, 191 nm, HSA alone 74.1)	Tm (°C) [B] ([4]; T at which ΔGm,Tm = 0, 191 nm, HSA alone 67.3)	ΔHm, Tm ([4]; linear fitting around Tm, HSA alone 85.8)	ΔSm, Tm ([4]; linear fitting around Tm, HSA alone 252.3)	Kd ([1]; isolated α1-acid glycoprotein (AGP) in solution)
Cc1c(N)nc([C@H](CC(N)=O)NC[C@H](N)C(N)=O)nc1C(=O)N[C@H](C(=O)N[C@H](C)[C@@H](O)[C@H](C)C(=O)N[C@H](C(=O)NCCc1nc(-c2nc(C(=O)NCCC[S+](C)C)cs2)cs1)[C@@H](C)O)[C@@H](O[C@@H]1O[C@@H](CO)[C@@H](O)[C@H](O)[C@@H]1O[C@H]1O[C@H](CO)[C@@H](O)[C@H](OC(N)=O)[C@@H]1O)c1c[nH]cn1 [A2, bleomycin A2]	13.2 µM									
Cc1c(N)nc([C@H](CC(N)=O)NC[C@H](N)C(N)=O)nc1C(=O)N[C@H](C(=O)N[C@H](C)[C@@H](O)[C@H](C)C(=O)N[C@H](C(=O)NCCc1nc(-c2nc(C(=O)NCCCCNC(=N)N)cs2)cs1)[C@@H](C)O)[C@@H](O[C@@H]1O[C@@H](CO)[C@@H](O)[C@H](O)[C@@H]1O[C@H]1O[C@H](CO)[C@@H](O)[C@H](OC(N)=O)[C@@H]1O)c1c[nH]cn1 [B2, bleomycin B2]		1.37 µM	51.7 °C	122.3 kJ^.mol^−1	376.5 J·K^−1·mol^−1	65.0 °C	62.2 °C	91.0 kJ^.mol^−1	271.6 J·K^−1·mol^−1	13.7 µM
